Tests used:
K-RAS G12D = biological target: T1, K-RAS G12D (Homo sapiens, UniProt P01116, G12D); assay: Compound depletion assay, K-RAS G12D; assay type: binding; settings: G12D protein 20 μM, compound 8 μM, 25° C.
T1 construct: His tag; purchased Stratech
Outline: (§1)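 His-tagged K-RAS (20 μM) in 20 mM HEPES pH 7.5, 150 mM NaCl, 1 mM MgCl2 incubated with 8 μM compound (final) at 25 °C with agitation. At 0, 30, 180, 360, 1440 min, samples were acid/acetonitrile-quenched and remaining free compound quantified by LC-MS/MS against propranolol, as percent of time zero.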

K-RAS G12C = biological target: T2, K-RAS G12C (Homo sapiens, UniProt P01116, G12C); assay: Compound depletion assay, K-RAS G12C; assay type: binding; settings: G12C protein 20 μM, compound 8 μM, 25° C.
T2 construct: His tag; purchased Stratech
Outline: as §1

T1 sequence (P01116 1-188 isoform P01116-2 G12D): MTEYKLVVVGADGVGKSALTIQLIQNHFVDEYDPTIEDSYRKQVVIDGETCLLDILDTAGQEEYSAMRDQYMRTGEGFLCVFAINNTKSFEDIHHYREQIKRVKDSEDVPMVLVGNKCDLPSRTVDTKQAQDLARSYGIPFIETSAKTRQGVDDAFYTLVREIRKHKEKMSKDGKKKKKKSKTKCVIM
T2 sequence (P01116 1-188 isoform P01116-2 G12C): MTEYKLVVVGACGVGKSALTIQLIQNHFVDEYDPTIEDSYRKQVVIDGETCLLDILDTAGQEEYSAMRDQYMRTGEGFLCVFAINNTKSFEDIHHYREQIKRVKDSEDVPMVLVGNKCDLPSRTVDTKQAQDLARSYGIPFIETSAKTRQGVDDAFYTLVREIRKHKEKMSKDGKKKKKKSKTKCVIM

SMILES | 30 min Category (compound remaining at timepoint) (K-RAS G12D) | 3 hr Category (compound remaining at timepoint) (K-RAS G12D) | 6 hr Category (compound remaining at timepoint) (K-RAS G12D) | 30 min Category (compound remaining at timepoint) (K-RAS G12C) | 3 hr Category (compound remaining at timepoint) (K-RAS G12C) | 6 hr Category (compound remaining at timepoint) (K-RAS G12C)
C=CC(=O)N1CCN(c2cc(C(=O)Nc3cc(O)cc4ccccc34)nc(OC[C@H]3CCCN3C)n2)C[C@@H]1CC#N [Example 34, 6-[(3S)-3-(cyanomethyl)-4-prop-2-enoyl-piperazin-1-yl]-N-(3-hydroxy-1-naphthyl)-2-[[(2R)-1-methylpyrrolidin-2-yl]methoxy]pyrimidine-4-carboxamide] | A (≥70% compound remaining at timepoint) | A (≥70% compound remaining at timepoint) | A (≥70% compound remaining at timepoint) | B (30%-70% compound remaining at timepoint) | C (≤30% compound remaining at timepoint) | C (≤30% compound remaining at timepoint)
C=CC(=O)N1CCN(c2cc(C(=O)Nc3cc(O)cc4ccccc34)nc(OCc3ccnn3C)n2)C[C@@H]1CC#N [Example 35, 6-[(3S)-3-(cyanomethyl)-4-prop-2-enoyl-piperazin-1-yl]-N-(3-hydroxy-1-naphthyl)-2-[(2-methylpyrazol-3-yl)methoxy]pyrimidine-4-carboxamide] | A (≥70% compound remaining at timepoint) | A (≥70% compound remaining at timepoint) | A (≥70% compound remaining at timepoint) | B (30%-70% compound remaining at timepoint) | C (≤30% compound remaining at timepoint) | C (≤30% compound remaining at timepoint)
C=CC(=O)N1CCN(c2cc(C(=O)Nc3cc(O)cc4ccccc34)nc(NCc3cnn(C)c3)n2)C[C@@H]1CC#N [Example 36, 6-[(3S)-3-(cyanomethyl)-4-prop-2-enoyl-piperazin-1-yl]-N-(3-hydroxy-1-naphthyl)-2-[(1-methylpyrazol-4-yl)methylamino]pyrimidine-4-carboxamide] | A (≥70% compound remaining at timepoint) | A (≥70% compound remaining at timepoint) | A (≥70% compound remaining at timepoint) | A (≥70% compound remaining at timepoint) | A (≥70% compound remaining at timepoint) | B (30%-70% compound remaining at timepoint)
C=CC(=O)N1CCN(c2cc(C(=O)Nc3cc(O)cc4ccccc34)nc(N3CCN(CCO)CC3)n2)C[C@@H]1CC#N [Example 37, 6-[(3S)-3-(cyanomethyl)-4-prop-2-enoyl-piperazin-1-yl]-2-[4-(2-hydroxyethyl)piperazin-1-yl]-N-(3-hydroxy-1-naphthyl)pyrimidine-4-carboxamide] | A (≥70% compound remaining at timepoint) | A (≥70% compound remaining at timepoint) | A (≥70% compound remaining at timepoint) | B (30%-70% compound remaining at timepoint) | C (≤30% compound remaining at timepoint) | C (≤30% compound remaining at timepoint)
C=CC(=O)N1CCN(c2cc(C(=O)Nc3cc(O)cc4ccccc34)nc(-c3cccc4c3cnn4C)n2)C[C@@H]1CC#N [Example 38, 6-[(3S)-3-(cyanomethyl)-4-prop-2-enoyl-piperazin-1-yl]-N-(3-hydroxy-1-naphthyl)-2-(1-methylindazol-4-yl)pyrimidine-4-carboxamide] | A (≥70% compound remaining at timepoint) | A (≥70% compound remaining at timepoint) | A (≥70% compound remaining at timepoint) | A (≥70% compound remaining at timepoint) | A (≥70% compound remaining at timepoint) | A (≥70% compound remaining at timepoint)
C=CC(=O)N1CCN(c2cc(C(=O)Nc3cc(O)cc4ccccc34)nc(-c3cccc4cnn(C)c34)n2)C[C@@H]1CC#N [Example 39, 6-[(3S)-3-(cyanomethyl)-4-prop-2-enoyl-piperazin-1-yl]-N-(3-hydroxy-1-naphthyl)-2-(1-methylindazol-7-yl)pyrimidine-4-carboxamide] | A (≥70% compound remaining at timepoint) | A (≥70% compound remaining at timepoint) | A (≥70% compound remaining at timepoint) | A (≥70% compound remaining at timepoint) | B (30%-70% compound remaining at timepoint) | B (30%-70% compound remaining at timepoint)
C=CC(=O)N1CCN(c2cc(C(=O)Nc3cc(O)cc4ccccc34)nc(Cc3ccccc3)n2)C[C@@H]1CC#N [Example 40, 2-benzyl-6-[(3S)-3-(cyanomethyl)-4-prop-2-enoyl-piperazin-1-yl]-N-(3-hydroxy-1-naphthyl)pyrimidine-4-carboxamide] | A (≥70% compound remaining at timepoint) | A (≥70% compound remaining at timepoint) | A (≥70% compound remaining at timepoint) | A (≥70% compound remaining at timepoint) | A (≥70% compound remaining at timepoint) | A (≥70% compound remaining at timepoint)
C=CC(=O)N1CCN(c2cc(C(=O)Nc3cc(O)cc4ccccc34)nc(NCc3ccnn3C)n2)C[C@@H]1CC#N [Example 41, 6-[(3S)-3-(cyanomethyl)-4-prop-2-enoyl-piperazin-1-yl]-N-(3-hydroxy-1-naphthyl)-2-[(2-methylpyrazol-3-yl)methylamino]pyrimidine-4-carboxamide] | A (≥70% compound remaining at timepoint) | A (≥70% compound remaining at timepoint) | A (≥70% compound remaining at timepoint) | A (≥70% compound remaining at timepoint) | B (30%-70% compound remaining at timepoint) | B (30%-70% compound remaining at timepoint)
C=CC(=O)N1CCN(c2cc(C(=O)Nc3cc(O)cc4ccccc34)nc(OCc3cnn(C)c3)n2)C[C@@H]1CC#N [Example 42, 6-[(3S)-3-(cyanomethyl)-4-prop-2-enoyl-piperazin-1-yl]-N-(3-hydroxy-1-naphthyl)-2-[(1-methylpyrazol-4-yl)methoxy]pyrimidine-4-carboxamide] | A (≥70% compound remaining at timepoint) | A (≥70% compound remaining at timepoint) | A (≥70% compound remaining at timepoint) | B (30%-70% compound remaining at timepoint) | C (≤30% compound remaining at timepoint) | C (≤30% compound remaining at timepoint)
C=CC(=O)N1CCN(c2cc(C(=O)Nc3cc(O)cc4ccccc34)nc(NCC3CCCN(C)C3)n2)C[C@@H]1CC#N (stereo partly drawn) [Example 43, 6-[(3S)-3-(cyanomethyl)-4-prop-2-enoyl-piperazin-1-yl]-N-(3-hydroxy-1-naphthyl)-2-[(1-methyl-3-piperidyl)methylamino]pyrimidine-4-carboxamide] | A (≥70% compound remaining at timepoint) | A (≥70% compound remaining at timepoint) | A (≥70% compound remaining at timepoint) | B (30%-70% compound remaining at timepoint) | C (≤30% compound remaining at timepoint) | C (≤30% compound remaining at timepoint)
